Common to all, as to test: MIC, standard broth micro-dilution assay
What all share (format): cell-based

In test [1] the test system is Entercoccus faecalis 2041. The protocol: (§1) The formula I compounds have in vitro and in vivo activity against Gram-positive pathogenic bacteria. The MIC's were determined using a standard broth micro-dilution assay.
The test system of test [2] is Entercoccus faecalis 276. As for the experimental part:
as §1

The test system of test [3] is Entercoccus gallinarum 245. As for the experimental part: as §1

Experimental findings from patent publication US5843889A, “Glycopeptide antibiotic derivatives” (Eli Lilly and Company, priority 1997, dated 1998) are described below.

Structures are written as SMILES. ≈ marks a conversion by molar mass, not a printed value.

For `CNC(CC(C)C)C(=O)NC1C(=O)NC(CC(N)=O)C(=O)NC2C(=O)NC3C(=O)NC(C(=O)NC(C(=O)O)c4cc(O)cc(O)c4-c4cc3ccc4O)C(OC3CC(C)(N)C(O)C(C)O3)c3ccc(c(Cl)c3)Oc3cc2cc(c3OC2OC(CO)C(O)C(O)C2OC2CC(C)(NCCc3cccc(Oc4ccccc4)c3)C(O)C(C)O2)Oc2ccc(cc2Cl)C1O` (stereo not drawn) [Compound 62, 3-phenoxyphenethyl], the MIC in test [1] is at most 0.06 mg/L; in test [2], 0.5 mg/L (≈ 0.28 µM); in test [3], 4 mg/L (≈ 2.24 µM).
Taken in the same sequence, the figures for `CNC(CC(C)C)C(=O)NC1C(=O)NC(CC(N)=O)C(=O)NC2C(=O)NC3C(=O)NC(C(=O)NC(C(=O)O)c4cc(O)cc(O)c4-c4cc3ccc4O)C(OC3CC(C)(N)C(O)C(C)O3)c3ccc(c(Cl)c3)Oc3cc2cc(c3OC2OC(CO)C(O)C(O)C2OC2CC(C)(NCCCCCCCCCCc3ccccc3)C(O)C(C)O2)Oc2ccc(cc2Cl)C1O` (stereo not drawn) [Compound 197, 10-phenyldecyl] were 0.25 mg/L (≈ 0.138 µM), 1 mg/L (≈ 0.553 µM) and 4 mg/L (≈ 2.21 µM).
On the same counts, the results for `CNC(CC(C)C)C(=O)NC1C(=O)NC(CC(N)=O)C(=O)NC2C(=O)NC3C(=O)NC(C(=O)NC(C(=O)O)c4cc(O)cc(O)c4-c4cc3ccc4O)C(OC3CC(C)(N)C(O)C(C)O3)c3ccc(c(Cl)c3)Oc3cc2cc(c3OC2OC(CO)C(O)C(O)C2OC2CC(C)(NCc3cccc(OCC4CCCCC4)c3)C(O)C(C)O2)Oc2ccc(cc2Cl)C1O` (stereo not drawn) [Compound 123, 3-[cyclohexylmethoxy]benzyl] are at most 0.06 mg/L, 0.25 mg/L (≈ 0.139 µM) and 1 mg/L (≈ 0.557 µM).
On the same counts, the results for `CNC(CC(C)C)C(=O)NC1C(=O)NC(CC(N)=O)C(=O)NC2C(=O)NC3C(=O)NC(C(=O)NC(C(=O)O)c4cc(O)cc(O)c4-c4cc3ccc4O)C(OC3CC(C)(N)C(O)C(C)O3)c3ccc(c(Cl)c3)Oc3cc2cc(c3OC2OC(CO)C(O)C(O)C2OC2CC(C)(NCc3ccc(-c4cccc(C)c4)cc3)C(O)C(C)O2)Oc2ccc(cc2Cl)C1O` (stereo not drawn) [Compound 224, 4-[3-methylphenyl]benzyl] are at most 0.06 mg/L, at most 0.06 mg/L and 0.5 mg/L (≈ 0.282 µM).
As to `C=CCOc1ccc(CNC2(C)CC(OC3C(Oc4c5cc6cc4Oc4ccc(cc4Cl)C(OC4CC(C)(N)C(O)C(C)O4)C4NC(=O)C(NC(=O)C6NC(=O)C(CC(N)=O)NC(=O)C(NC(=O)C(CC(C)C)NC)C(O)c6ccc(c(Cl)c6)O5)c5ccc(O)c(c5)-c5c(O)cc(O)cc5C(C(=O)O)NC4=O)OC(CO)C(O)C3O)OC(C)C2O)cc1` (stereo not drawn) [Compound 7, 4-allyloxybenzyl], the figures for the MIC in test [1], in test [2] and in test [3] were 0.125 mg/L (≈ 0.0719 µM), 1 mg/L (≈ 0.575 µM) and 0.5 mg/L (≈ 0.288 µM), respectively.
Taken in the same sequence, the figures for `CCCCCCCC#Cc1ccc(CN[C@@]2(C)C[C@H](O[C@H]3[C@H](Oc4c5cc6cc4Oc4ccc(cc4Cl)[C@@H](O[C@H]4C[C@](C)(N)[C@@H](O)[C@H](C)O4)[C@@H]4NC(=O)[C@H](NC(=O)[C@@H]6NC(=O)[C@H](CC(N)=O)NC(=O)[C@H](NC(=O)[C@@H](CC(C)C)NC)[C@H](O)c6ccc(c(Cl)c6)O5)c5ccc(O)c(c5)-c5c(O)cc(O)cc5[C@@H](C(=O)O)NC4=O)O[C@H](CO)[C@@H](O)[C@@H]3O)O[C@@H](C)[C@@H]2O)cc1` [Compound 232, 4-[1-nonynyl]benzyl] were 2 mg/L (≈ 1.11 µM), 8 mg/L (≈ 4.43 µM) and 32 mg/L (≈ 17.7 µM).
As to `CNC(CC(C)C)C(=O)NC1C(=O)NC(CC(N)=O)C(=O)NC2C(=O)NC3C(=O)NC(C(=O)NC(C(=O)O)c4cc(O)cc(O)c4-c4cc3ccc4O)C(OC3CC(C)(N)C(O)C(C)O3)c3ccc(c(Cl)c3)Oc3cc2cc(c3OC2OC(CO)C(O)C(O)C2OC2CC(C)(NCc3ccc(O)cc3)C(O)C(C)O2)Oc2ccc(cc2Cl)C1O` (stereo not drawn) [Compound 136, 4-hydroxybenzyl], the MIC in test [1] was at most 0.06 mg/L; in test [2], at most 0.06 mg/L; in test [3] it was 4 mg/L (≈ 2.35 µM).
For the compound `CNC(CC(C)C)C(=O)NC1C(=O)NC(CC(N)=O)C(=O)NC2C(=O)NC3C(=O)NC(C(=O)NC(C(=O)O)c4cc(O)cc(O)c4-c4cc3ccc4O)C(OC3CC(C)(N)C(O)C(C)O3)c3ccc(c(Cl)c3)Oc3cc2cc(c3OC2OC(CO)C(O)C(O)C2OC2CC(C)(NCc3ccc(S(=O)(=O)N4CCCC4)cc3)C(O)C(C)O2)Oc2ccc(cc2Cl)C1O` (stereo not drawn) [Compound 174, 4-[1-pyrrolidinosulfonyl]benzyl], the figures for the MIC in test [1], in test [2] and in test [3] were at most 0.06 mg/L, at most 0.06 mg/L and 16 mg/L (≈ 8.81 µM), respectively.
Consider `CNC(CC(C)C)C(=O)NC1C(=O)NC(CC(N)=O)C(=O)NC2C(=O)NC3C(=O)NC(C(=O)NC(C(=O)O)c4cc(O)cc(O)c4-c4cc3ccc4O)C(OC3CC(C)(N)C(O)C(C)O3)c3ccc(c(Cl)c3)Oc3cc2cc(c3OC2OC(CO)C(O)C(O)C2OC2CC(C)(NCc3cccc(OC(=O)C4CCCCC4)c3)C(O)C(C)O2)Oc2ccc(cc2Cl)C1O` (stereo not drawn) [Compound 165, 3-cyclohexanoyloxybenzyl], for which the MIC was at most 0.06 mg/L in test [1], 0.5 mg/L (≈ 0.276 µM) in test [2] and 4 mg/L (≈ 2.21 µM) in test [3].
On the same counts, the results for `CNC(CC(C)C)C(=O)NC1C(=O)NC(CC(N)=O)C(=O)NC2C(=O)NC3C(=O)NC(C(=O)NC(C(=O)O)c4cc(O)cc(O)c4-c4cc3ccc4O)C(OC3CC(C)(N)C(O)C(C)O3)c3ccc(c(Cl)c3)Oc3cc2cc(c3OC2OC(CO)C(O)C(O)C2OC2CC(C)(NCc3ccc(OS(C)(=O)=O)cc3)C(O)C(C)O2)Oc2ccc(cc2Cl)C1O` (stereo not drawn) [Compound 149, 4-methylsulfonyloxybenzyl] are at most 0.06 mg/L, at most 0.06 mg/L and 16 mg/L (≈ 9.01 µM).
Take `CNC(CC(C)C)C(=O)NC1C(=O)NC(CC(N)=O)C(=O)NC2C(=O)NC3C(=O)NC(C(=O)NC(C(=O)O)c4cc(O)cc(O)c4-c4cc3ccc4O)C(OC3CC(C)(N)C(O)C(C)O3)c3ccc(c(Cl)c3)Oc3cc2cc(c3OC2OC(CO)C(O)C(O)C2OC2CC(C)(NCc3sccc3-c3cccs3)C(O)C(C)O2)Oc2ccc(cc2Cl)C1O` (stereo not drawn) [Compound 238, 3-[2-thienyl]-2-thienylmethyl]: the MIC in test [1], in test [2] and in test [3] was at most 0.06 mg/L each time.
As to `CNC(CC(C)C)C(=O)NC1C(=O)NC(CC(N)=O)C(=O)NC2C(=O)NC3C(=O)NC(C(=O)NC(C(=O)O)c4cc(O)cc(O)c4-c4cc3ccc4O)C(OC3CC(C)(N)C(O)C(C)O3)c3ccc(cc3)Oc3cc2cc(c3OC2OC(CO)C(O)C(O)C2OC2CC(C)(NCc3ccc(Oc4ccccc4)cc3)C(O)C(C)O2)Oc2ccc(cc2)C1O` (stereo not drawn) [Compound 184, 4-phenoxybenzyl], the values for the MIC in test [1], in test [2] and in test [3] were 1 mg/L (≈ 0.586 µM), 0.5 mg/L (≈ 0.293 µM) and 4 mg/L (≈ 2.34 µM), respectively.
In the case of `CCCCCc1ccc(-c2ccc(CNC3(C)CC(OC4C(Oc5c6cc7cc5Oc5ccc(cc5Cl)C(OC5CC(C)(N)C(O)C(C)O5)C5NC(=O)C(NC(=O)C7NC(=O)C(CC(N)=O)NC(=O)C(NC(=O)C(CC(C)C)NC)C(O)c7ccc(c(Cl)c7)O6)c6ccc(O)c(c6)-c6c(O)cc(O)cc6C(C(=O)O)NC5=O)OC(CO)C(O)C4O)OC(C)C3O)cc2)cc1` (stereo not drawn) [Compound 22, 4-[4-pentylphenyl]benzyl], the MIC in test [1] stood at 2 mg/L (≈ 1.09 µM); in test [2] it was 4 mg/L (≈ 2.19 µM); in test [3] it was 1 mg/L (≈ 0.547 µM).
On the same counts, the results for `CNC(CC(C)C)C(=O)NC1C(=O)NC(CC(N)=O)C(=O)NC2C(=O)NC3C(=O)NC(C(=O)NC(C(=O)O)c4cc(O)cc(O)c4-c4cc3ccc4O)C(OC3CC(C)(N)C(O)C(C)O3)c3ccc(c(Cl)c3)Oc3cc2cc(c3OC2OC(CO)C(O)C(O)C2OC2CC(C)(NCc3cccc(Oc4ccc(C(F)(F)F)cc4)c3)C(O)C(C)O2)Oc2ccc(cc2Cl)C1O` (stereo not drawn) [Compound 132, 3-[4-trifluoromethylphenoxy]benzyl] are 1 mg/L (≈ 0.543 µM), 1 mg/L (≈ 0.543 µM) and 2 mg/L (≈ 1.09 µM).
Taken in the same sequence, the figures for `CNC(CC(C)C)C(=O)NC1C(=O)NC(CC(N)=O)C(=O)NC2C(=O)NC3C(=O)NC(C(=O)NC(C(=O)O)c4cc(O)cc(O)c4-c4cc3ccc4O)C(OC3CC(C)(N)C(O)C(C)O3)c3ccc(c(Cl)c3)Oc3cc2cc(c3OC2OC(CO)C(O)C(O)C2OC2CC(C)(NCc3ccc(-c4ccccc4[N+](=O)[O-])c([N+](=O)[O-])c3)C(O)C(C)O2)Oc2ccc(cc2Cl)C1O` (stereo not drawn) [Compound 213, 3-nitro-4-[2-nitrophenyl]benzyl] were at most 0.06 mg/L, at most 0.06 mg/L and 2 mg/L (≈ 1.08 µM).
On the same counts, the results for `CCCCCCCCCOc1ccc(CNC2(C)CC(OC3C(Oc4c5cc6cc4Oc4ccc(cc4Cl)C(OC4CC(C)(N)C(O)C(C)O4)C4NC(=O)C(NC(=O)C6NC(=O)C(CC(N)=O)NC(=O)C(NC(=O)C(CC(C)C)NC)C(O)c6ccc(c(Cl)c6)O5)c5ccc(O)c(c5)-c5c(O)cc(O)cc5C(C(=O)O)NC4=O)OC(CO)C(O)C3O)OC(C)C2O)cc1` (stereo not drawn) [Compound 8, 4-nonyloxybenzyl] are 4 mg/L (≈ 2.19 µM), 4 mg/L (≈ 2.19 µM) and 8 mg/L (≈ 4.38 µM).
Turning to `CNC(CC(C)C)C(=O)NC1C(=O)NC(CC(N)=O)C(=O)NC2C(=O)NC3C(=O)NC(C(=O)NC(C(=O)O)c4cc(O)cc(O)c4-c4cc3ccc4O)C(OC3CC(C)(N)C(O)C(C)O3)c3ccc(c(Cl)c3)Oc3cc2cc(c3OC2OC(CO)C(O)C(O)C2OC2CC(C)(NCc3ccc(OC)c4ccccc34)C(O)C(C)O2)Oc2ccc(cc2Cl)C1O` (stereo not drawn) [Compound 15, 4-methoxy-1-naphthylmethyl], the MIC in test [1], in test [2] and in test [3] was at most 0.06 mg/L each time.
For `CNC(CC(C)C)C(=O)NC1C(=O)NC(CC(N)=O)C(=O)NC2C(=O)NC3C(=O)NC(C(=O)NC(C(=O)O)c4cc(O)cc(O)c4-c4cc3ccc4O)C(OC3CC(C)(N)C(O)C(C)O3)c3ccc(c(Cl)c3)Oc3cc2cc(c3OC2OC(CO)C(O)C(O)C2OC2CC(C)(NCc3ccc(OS(=O)(=O)c4c(C)c(C)c(C)c(C)c4C)cc3)C(O)C(C)O2)Oc2ccc(cc2Cl)C1O` (stereo not drawn) [Compound 173, 4-[[2,3,4,5,6-pentamethyl]phenylsulfonyloxy]benzyl], the MIC in test [1] worked out at 0.5 mg/L (≈ 0.262 µM); in test [2], 2 mg/L (≈ 1.05 µM); in test [3], 4 mg/L (≈ 2.1 µM).
